Data taken from patent publication US9937178B2, “Methods of identifying and using MDM2 inhibitors” (DUKE UNIVERSITY, priority 2011, dated 2018).

How the values were obtained:
[1] = tested on: Akt; assay: Immunoblot of phospho-AKT in lapatinib-treated cells; assay type: cell-based; conditions: sensitive and resistant cells, 1 μM lapatinib, 50 μM z-VAD
Procedure: (§1) FIG. 3B is a set of immunoblots showing the levels of HER2 and phospho-HER2 in untreated cells and cells treated with lapatinib. Cells were treated with or without lapatinib (1 μM) for 24 hours in the presence of the caspase inhibitor z-VAD (50 μM). The cells were harvested and cell lysates were immunoblotted using antibodies against phospho-HER2 (Y877) and total HER2. FIG. 3C is an immunoblot for phospho-AKT (T308) and total AKT. BT474 and rBT474 cells were treated with 1 μM lapatinib in the presence of 50 μM z-VAD. At the indicated time points, the cells were harvested and immunoblotted. FIG. 3D is an immunoblot for phospho-Erl1/2(T202/Y204) and total Erk1/2. BT474 and rBT474 cells were treated with 1 μM lapatinib in the presence of 50 μM z-VAD. At the indicated time points, the cells were harvested and immunoblotted.

[2] = tested on: Erk1/2; assay: Immunoblot of phospho-Erk1/2 in lapatinib-treated cells; assay type: cell-based; conditions: sensitive and resistant cells, 1 μM lapatinib, 50 μM z-VAD
Procedure: as §1

[3] = tested on: PP5; assay: Immunoblot of PP5 protein levels; assay type: cell-based; conditions: 1 μM lapatinib
Procedure: FIG. 7 is a set of photographs and graphs showing PP5 stability and post-cytochrome c protection in lapatinib-resistant cells. FIG. 7A is an immunoblot for caspase-9 (cleaved and non-cleaved) and cleaved caspase-3 (C9 and C3, respectively) showing rBT474 cells cultured in the absence or presence of 1 μM lapatinib for one week, as compared to BT474 cells which were maintained without lapatinib. Cytosolic lysates prepared from BT474 or rBT474 were incubated with 1 mM dATP and various amounts of cytochrome c (CC). FIG. 7B is a set of graphs showing Caspase 3 activity in the indicated cell lysates over time. Caspase-3 activity was assayed by measuring cleavage of DEVD-pNA following incubation of the cell lysates with 1 mM dATP and various concentrations of cytochrome c. FIG. 7C is an autoradiograph of ^32P and an immunoblot showing the percentage of the protein phosphorylated. In the presence of [γ-^32P]ATP, recombinant His-tagged HSP90β proteins (wild type and the indicated mutants) on nickel beads were incubated with the HSP90β-targeted kinase casein kinase 2. FIG. 7D is an autoradiograph and corresponding immunoblot showing BT474 or rBT474 cells after being cultured in the absence or presence of 1 μM lapatinib for 24 hours in the presence of z-VAD. Recombinant His-tagged HSP90β protein on nickel beads was incubated with the cell lysates in the presence of [γ-^32P]ATP. FIG. 7E is an immunoblot for phospho-Hsp90β (Ser226) and total HSP90β at various time points. […] FIG. 7F is a set of graphs showing FACS analysis for the phosphorylation status of Hsp90β (Ser255). BT474 or rBT474 cells cultured in the presence of 1 μM lapatinib for 24 hours were fixed with formaldehyde and incubated with phospho-Hsp90β (Ser255) antibody followed by an Alexa488-conjugated secondary antibody. FIG. 7G is an immunoblot for PP5 and actin at the indicated time points. BT474 and rBT474 (left) or AU565 and rAU565 cells (right) were treated with 1 μM lapatinib. FIG. 7H is an autoradiograph of immunoprecipitated FLAG-PP5 using an anti-FLAG agarose. […]

[4] = tested on: Huwe1; assay: Immunoblot of Huwe1 protein levels and stability; assay type: cell-based
Procedure: FIG. 13 is a set of immunoblots showing MDM2-mediated ubiquitylation and degradation of Huwe1 in lapatinib-resistant cells. […] Cells treated with 1 μM lapatinib were harvested at various time points and immunoblotted. […] FIG. 13B is an immunoblot for HA and actin. BT474 and rBT474 cells were transiently transfected with HA-tagged Huwe1 and subsequently treated with 50 μg/ml cycloheximide (CHX) and 1 μM lapatinib. FIG. 13C is an immunoblot for Huwe1 and MDM2. Immunoprecipitation was carried out using H1299 cell lysates and anti-Huwe1 antibody (or control IgG). FIG. 13D is an immunoblot for HA or MDM2 after immunoprecipitation with HA. BT474 cells were transfected with HA-tagged Huwe1 encoding the full-length protein, residues 1-2474, or residues 2473-4374. […] H1299 cells were transfected with empty vector, HA-Huwe1^W1202A, or HA-Huwe1 wild type. FIG. 13F is an immunoblot for Huwe1 and Actin. BT474 cells were transfected with increasing amounts of MDM2 and harvested after 48 hours. FIG. 13G is an immunoblot for Huwe1, MDM2, and actin. […] FIG. 13H is an immunoblot for Huwe1. Ubiquitylation of Huwe1 was reconstituted in vitro by incubating recombinant Huwe1 protein (Huwe1^1-2474) with E1, UbcH5 (E2), ubiquitin (Ub), and recombinant MDM2 protein in reaction buffer at 37° C. for 3 hours. […] Twenty-four hours later, the cells were replated and further transfected with HA-tagged Huwe1 (wild type). Forty-eight hours after siRNA transfection, the cells were treated with 1 μM lapatinib. After 24 hours of lapatinib treatment, 50 μg/ml cycloheximide (CHX) was added to the culture medium and cells were harvested at various time points for immunoblotting.

[5] = tested on: AU565-derived tumor; assay: AU565 mammary fat pad xenograft; assay type: in vivo, mouse; conditions: 100 mg/kg each drug, twice daily by oral gavage
Procedure: Six week-old female nude mice were purchased from NCI Frederic. Xenograft tumors were produced by injection into the mammary fat pad with cells (10×10^6). Tumor volumes were calculated every 3-4 days based on caliper measurements of the short (a) and long (b) tumor diameters (volume=a2b/2). […] Mice were dosed orally with vehicle alone, lapatinib (100 mg/kg), Nutlin-3 (100 mg/kg), or combination of both twice daily by gavage.

SMILES: CS(=O)(=O)CCNCc1ccc(-c2ccc3ncnc(Nc4ccc(OCc5cccc(F)c5)c(Cl)c4)c3c2)o1 [lapatinib]
- phosphorylation of Akt [1]: attenuated
- phosphorylation of Erk1/2 [2]: attenuated
- PP5 levels ([3]; resistant cells): unaltered
- PP5 levels ([3]; sensitive cells): gradual decrease
- Huwe1 protein half-life ([4]; lapatinib-treated rBT474 cells compared to BT474 cells, 50 μg/ml cycloheximide): significantly shorter
- Huwe1 protein levels ([4]; parental cells, 1 μM lapatinib): remained stable
- Huwe1 levels ([4]; resistant cells, 1 μM lapatinib): significantly decreased
- AU565-derived tumor growth [5]: substantially inhibited
